IC50 data for 57 molecules are collected here from US11931343B2 (ARCUS BIOSCIENCES, INC., priority 2018, dated 2024).

The target in the test is T1, human CD73 (Homo sapiens, UniProt P21589).
T1 sequence (P21589 27-549): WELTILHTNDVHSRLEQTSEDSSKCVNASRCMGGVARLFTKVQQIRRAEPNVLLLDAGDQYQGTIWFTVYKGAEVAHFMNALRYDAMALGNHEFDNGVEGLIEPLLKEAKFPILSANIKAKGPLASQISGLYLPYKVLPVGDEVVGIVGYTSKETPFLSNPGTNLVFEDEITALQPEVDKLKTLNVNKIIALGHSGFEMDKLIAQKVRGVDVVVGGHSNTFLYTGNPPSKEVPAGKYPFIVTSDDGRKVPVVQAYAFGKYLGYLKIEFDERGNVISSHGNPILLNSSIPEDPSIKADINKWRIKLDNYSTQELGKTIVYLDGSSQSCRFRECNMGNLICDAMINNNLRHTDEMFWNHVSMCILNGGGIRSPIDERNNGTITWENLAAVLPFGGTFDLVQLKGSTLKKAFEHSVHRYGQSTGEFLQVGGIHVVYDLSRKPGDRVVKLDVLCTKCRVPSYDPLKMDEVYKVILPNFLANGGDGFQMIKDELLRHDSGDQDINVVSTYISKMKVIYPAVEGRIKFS
Put plainly: Inhibition of Ecto-5′-nucleotidase (CD73) activity in CHO-CD73 cells, phosphate release from AMP. The test is classed as cell-based. The note with it: CHO-K1 cells stably transfected with human CD73; 25 μM AMP; 50 minutes, 37° C.; read-out: Potency: CD73 IC50.

One may read the IC50 as the concentration at which inhibition is half-maximal. For `C=C(C)c1cc(C#N)ccc1Cn1nccc1-c1cc(F)c2nnn(-c3ccc4[nH]c(=O)[nH]c4c3)c2c1` [Example 264], the IC50 was 0.1 to 1 µM. The value for `O=c1[nH]c2ccc(-n3nnc4c(Cl)cc(-c5ccnn5Cc5cccc[n+]5[O-])cc43)cc2[nH]1` [Example 265] was more than 1 µM; that for `Cn1ccc(Cn2nccc2-c2cc(F)c3nnn(-c4ccc5[nH]c(=O)[nH]c5c4)c3c2)n1` [Example 266] was more than 1 µM; that for `N#Cc1ccc(Cn2nccc2-c2cc(F)c3nnn(-c4ccc5[nH]c(=O)[nH]c5c4)c3c2)c(Br)c1` [Example 267] was 0.1 to 1 µM. The value for `N#Cc1ccc(Cn2nccc2-c2cc(F)c3nnn(-c4ccc5[nH]c(=O)[nH]c5c4)c3c2)c(CN2CCOCC2)c1` [Example 268] was more than 1 µM; that for `N#Cc1cnc(Cn2nccc2-c2cc(Cl)c3nnn(-c4ccc5[nH]c(=O)[nH]c5c4)c3c2)c(Cl)c1` [Example 269] was 0.1 to 1 µM; that for `Cc1cc(C#N)ccc1Cn1nccc1-c1cc(Cl)c2nnn(-c3ccc4[nH]c(=O)[nH]c4c3)c2c1` [Example 270] was less than 0.1 µM. As for `N#Cc1ccc(Cn2nccc2-c2cc(F)c3nnn(-c4ccc5[nH]c(=O)[nH]c5c4)c3c2)c(C(F)(F)F)c1` [Example 271], the figure is 0.1 to 1 µM.

Take `N#Cc1cc(F)c(Cn2nccc2-c2cc(Cl)c3nnn(-c4ccc5[nH]c(=O)[nH]c5c4)c3c2)cc1F` [Example 272]: the IC50 is 0.1 to 1 µM. Turning to `N#Cc1cc(F)c(Cn2nccc2-c2cc(Cl)c3nnn(-c4ccc5[nH]c(=O)[nH]c5c4)c3c2)c(F)c1` [Example 273], the IC50 is 0.1 to 1 µM. As for `Nc1nn(-c2ccc3cn[nH]c3c2)c2cc(-c3ccnn3Cc3ccc(Cl)cn3)cnc12` [Example 274], the figure is 0.1 to 1 µM; as for `O=c1[nH]c2ccc(-n3nnc4c(Cl)cc(-c5ccnn5C5Cc6ccc(Cl)cc6C5)cc43)cc2[nH]1` (stereo not drawn) [Example 275], 0.1 to 1 µM. As for `N#Cc1cc(F)c(Cn2nccc2-c2cc(F)c3nnn(-c4ccc5[nH]c(=O)[nH]c5c4)c3c2)c(Cl)c1` [Example 276], the figure is more than 1 µM; as for `N#Cc1ccc(Cn2nccc2-c2cc(F)c3nnn(-c4ccc5[nH]c(=O)[nH]c5c4)c3c2)c(CN[C@H]2CCOC2)c1` [Example 277], more than 1 µM. Regarding `N#Cc1ccc(Cn2nccc2-c2cc(F)c3nnn(-c4ccc5[nH]c(=O)[nH]c5c4)c3c2)c(CN2CCCC2)c1` [Example 278], the half-maximal inhibitory concentration (IC50) is more than 1 µM. As for `COCc1cc(C#N)ccc1Cn1nccc1-c1cc(F)c2nnn(-c3ccc4[nH]c(=O)[nH]c4c3)c2c1` [Example 279], the figure is 0.1 to 1 µM; as for `Cc1cc(C#N)cnc1Cn1nccc1-c1cc(F)c2nnn(-c3ccc4[nH]c(=O)[nH]c4c3)c2c1` [Example 280], more than 1 µM. As for `N#Cc1ccc(Cn2nccc2-c2cnc3c(N)nn(-c4ccc5cn[nH]c5c4)c3c2)nc1` [Example 281], the figure is 0.1 to 1 µM; as for `O=c1[nH]c2ccc(-n3nnc4c(F)cc(-c5ccnn5Cc5cccc(F)c5Cl)cc43)cc2[nH]1` [Example 282], 0.1 to 1 µM; as for `O=c1[nH]c2ccc(-n3nnc4c(F)cc(-c5ccnn5Cc5cccc(Cl)c5Cl)cc43)cc2[nH]1` [Example 283], 0.1 to 1 µM.

Take `COc1cc(Cl)ccc1Cn1nccc1-c1cc(F)c2nnn(-c3ccc4[nH]c(=O)[nH]c4c3)c2c1` [Example 284]: the IC50 was in the range of 0.1 to 1 µM. The value for `N#Cc1ccc(Cn2nccc2-c2cc(F)c3nnn(-c4ccc5[nH]c(=O)[nH]c5c4)c3c2)c(CN2CCC2C(=O)O)c1` (stereo not drawn) [Example 285] was more than 1 µM; that for `N#Cc1ccc(Cn2nccc2-c2cc(F)c3nnn(-c4ccc5[nH]c(=O)[nH]c5c4)c3c2)c(CNC2CCCC2)c1` [Example 286] was 0.1 to 1 µM; that for `Nc1cccc(Cn2nccc2-c2cc(Cl)c3nnn(-c4ccc5[nH]c(=O)[nH]c5c4)c3c2)n1` [Example 287] was more than 1 µM. The value for `N#Cc1ccc(Cn2nccc2-c2cc(Cl)c3nnn(-c4ccc5[nH]c(=O)[nH]c5c4)c3c2)c(N2CCOCC2)c1` [Example 288] was more than 1 µM; that for `CC(=O)c1cc(C#N)ccc1Cn1nccc1-c1cc(F)c2nnn(-c3ccc4[nH]c(=O)[nH]c4c3)c2c1` [Example 289] was 0.1 to 1 µM. The value for `N#Cc1ccc(Cn2nccc2-c2cc(F)c3nnn(-c4ccc5[nH]c(=O)[nH]c5c4)c3c2)c(C(N)=O)c1` [Example 290] was 0.1 to 1 µM; that for `N#Cc1ccc(Cn2nccc2-c2cc(F)c3nnn(-c4ccc5[nH]c(=O)[nH]c5c4)c3c2)c(S(=O)(=O)c2ccccc2)c1` [Example 291] was 0.1 to 1 µM; that for `N#Cc1ccc(Cn2nccc2-c2cc(F)c3nnn(-c4ccc5[nH]c(=O)[nH]c5c4)c3c2)c(OC(F)(F)F)c1` [Example 292] was 0.1 to 1 µM. Consider `Cc1cc(-n2nccc2-c2cc(Cl)c3nnn(-c4ccc5[nH]c(=O)[nH]c5c4)c3c2)ccn1` [Example 293], for which the IC50 was in the range of 0.1 to 1 µM.

Regarding `N#Cc1ccc(Cn2nccc2-c2cc(F)c3nnn(-c4ccc5[nH]c(=O)[nH]c5c4)c3c2)c(CN2CC(C(=O)O)C2)c1` [Example 294], the half-maximal inhibitory concentration (IC50) fell in the range of 0.1 to 1 µM. The value for `Nc1nn(-c2ccc3[nH]c(=O)[nH]c3c2)c2cc(-c3ccnn3Cc3ccc(Cl)cn3)cnc12` [Example 295] was more than 1 µM; that for `N#Cc1ccc(Cn2nccc2-c2cc(F)c3nnn(-c4ccc5[nH]c(=O)[nH]c5c4)c3c2)c(CNCC2CCCC2)c1` [Example 296] was 0.1 to 1 µM.

As for `N#Cc1ccc(Cn2nccc2-c2cc(F)c3nnn(-c4ccc5[nH]c(=O)[nH]c5c4)c3c2)c(CO)c1` [Example 297], the IC50 was less than 0.1 µM.

Consider `N#Cc1ccc(Cn2nccc2-c2cc(F)c3nnn(-c4ccc5[nH]c(=O)[nH]c5c4)c3c2)c(-c2ncco2)c1` [Example 299], for which the IC50 is 0.1 to 1 µM. The value for `Cc1cc(-n2nccc2-c2cc(Cl)c3nnn(-c4ccc5[nH]c(=O)[nH]c5c4)c3c2)cc(C)n1` [Example 300] was 0.1 to 1 µM; that for `CS(=O)(=O)c1cccc(-n2nccc2-c2cc(Cl)c3nnn(-c4ccc5[nH]c(=O)[nH]c5c4)c3c2)c1` [Example 301] was 0.1 to 1 µM; that for `Cc1cc(C#N)ccc1Cn1nccc1-c1cc(F)c2nnn(-c3ccc4[nH]c(=O)[nH]c4c3)c2c1` [Example 302] was 0.1 to 1 µM. The value for `Cn1nccc1-c1cc(C#N)ccc1Cn1nccc1-c1cc(F)c2nnn(-c3ccc4[nH]c(=O)[nH]c4c3)c2c1` [Example 303] was 0.1 to 1 µM. The value for `N#Cc1ccc(Cn2nccc2-c2cc(F)c3nnn(-c4ccc5[nH]c(=O)[nH]c5c4)c3c2)c(-c2ccn[nH]2)c1` [Example 304] was 0.1 to 1 µM; that for `CC(C)(O)C1CN(Cc2cc(C#N)ccc2Cn2nccc2-c2cc(F)c3nnn(-c4ccc5[nH]c(=O)[nH]c5c4)c3c2)C1` [Example 305] was 0.1 to 1 µM. `N#Cc1ccc(Cn2nccc2-c2cc(F)c3nnn(-c4ccc5[nH]c(=O)[nH]c5c4)c3c2)c(C(=O)O)c1` [Example 306]: the half-inhibitory concentration (IC50) fell in the range of 0.1 to 1 µM.

As to `CNC(=O)c1cc(C#N)ccc1Cn1nccc1-c1cc(F)c2nnn(-c3ccc4[nH]c(=O)[nH]c4c3)c2c1` [Example 307], the IC50 fell in the range of 0.1 to 1 µM.

Consider `N#Cc1ccc(Cn2nccc2-c2cc(F)c3nnn(-c4ccc5[nH]c(=O)[nH]c5c4)c3c2)c(C(=O)N2CC(O)C2)c1` [Example 308], for which the IC50 was more than 1 µM.

Consider `CCc1cc(C#N)ccc1Cn1nccc1-c1cc(F)c2nnn(-c3ccc4[nH]c(=O)[nH]c4c3)c2c1` [Example 309], for which the half-maximal inhibitory concentration (IC50) was 0.1 to 1 µM. The value for `N#Cc1ccc(Cn2nccc2-c2cc(F)c3nnn(-c4ccc5[nH]c(=O)[nH]c5c4)c3c2)c(S(N)(=O)=O)c1` [Example 310] was 0.1 to 1 µM. As for `N#Cc1ccc(Cn2nccc2-c2cn3c(-c4ccc5[nH]c(=O)[nH]c5c4)cnc3cn2)cc1` [Example 311], the figure is more than 1 µM; as for `CC(C)(O)c1cc(C#N)ccc1Cn1nccc1-c1cc(F)c2nnn(-c3ccc4[nH]c(=O)[nH]c4c3)c2c1` [Example 312], more than 1 µM; as for `CC(O)c1cc(C#N)ccc1Cn1nccc1-c1cc(F)c2nnn(-c3ccc4[nH]c(=O)[nH]c4c3)c2c1` (stereo not drawn) [Example 313], 0.1 to 1 µM. The value for `N#Cc1ccc(Cn2nccc2-c2cc3c(cn2)c(N)nn3-c2ccc3[nH]c(=O)[nH]c3c2)cc1` [Example 314] was 0.1 to 1 µM; that for `N#Cc1ccc(Cn2nccc2-c2cnc3c(N)nn(-c4ccc5[nH]c(=O)[nH]c5c4)c3c2)nc1` [Example 315] was 0.1 to 1 µM.

As for `Cn1nc(-c2ccc3[nH]c(=O)[nH]c3c2)c2cc(-c3ccnn3Cc3ccc(C#N)cc3)cnc21` [Example 316], the IC50 fell in the range of 0.1 to 1 µM. As for `Cc1nn(-c2ccc3cn[nH]c3c2)c2cc(-c3ccnn3Cc3ccc(C#N)cc3)cnc12` [Example 317], the figure is 0.1 to 1 µM; as for `N#Cc1cnc(Cn2nccc2-c2cc(F)c3nnn(-c4ccc5[nH]c(=O)[nH]c5c4)c3c2)c2ccccc12` [Example 318], more than 1 µM. The value for `N#CCc1ccc(Cn2nccc2-c2cc(F)c3nnn(-c4ccc5[nH]c(=O)[nH]c5c4)c3c2)cc1` [Example 319] was more than 1 µM; that for `Cc1coc(-c2cc(C#N)ccc2Cn2nccc2-c2cc(F)c3nnn(-c4ccc5[nH]c(=O)[nH]c5c4)c3c2)n1` [Example 320] was 0.1 to 1 µM. In the case of `Cc1cnc(-c2cc(C#N)ccc2Cn2nccc2-c2cc(F)c3nnn(-c4ccc5[nH]c(=O)[nH]c5c4)c3c2)o1` [Example 321], the concentration for half-maximal inhibition (IC50) lay in the range of 0.1 to 1 µM.
